pEC50: −log10 of the molar value. Structures can show the parent of a compound that is named as a salt.
Target: T1, abc isoform of human TMEM16A channel expressed in CHO cells (Homo sapiens, UniProt Q5XXA6, DEL476-501)
T1 construct: expressed in transfected cells; host or cells: CHO cells, doxycycline-inducible expression under Blasticidin/Zeocin selection
T1 sequence (Q5XXA6 with tags, fused parts or gaps isoform Q5XXA6-5 DEL539-564): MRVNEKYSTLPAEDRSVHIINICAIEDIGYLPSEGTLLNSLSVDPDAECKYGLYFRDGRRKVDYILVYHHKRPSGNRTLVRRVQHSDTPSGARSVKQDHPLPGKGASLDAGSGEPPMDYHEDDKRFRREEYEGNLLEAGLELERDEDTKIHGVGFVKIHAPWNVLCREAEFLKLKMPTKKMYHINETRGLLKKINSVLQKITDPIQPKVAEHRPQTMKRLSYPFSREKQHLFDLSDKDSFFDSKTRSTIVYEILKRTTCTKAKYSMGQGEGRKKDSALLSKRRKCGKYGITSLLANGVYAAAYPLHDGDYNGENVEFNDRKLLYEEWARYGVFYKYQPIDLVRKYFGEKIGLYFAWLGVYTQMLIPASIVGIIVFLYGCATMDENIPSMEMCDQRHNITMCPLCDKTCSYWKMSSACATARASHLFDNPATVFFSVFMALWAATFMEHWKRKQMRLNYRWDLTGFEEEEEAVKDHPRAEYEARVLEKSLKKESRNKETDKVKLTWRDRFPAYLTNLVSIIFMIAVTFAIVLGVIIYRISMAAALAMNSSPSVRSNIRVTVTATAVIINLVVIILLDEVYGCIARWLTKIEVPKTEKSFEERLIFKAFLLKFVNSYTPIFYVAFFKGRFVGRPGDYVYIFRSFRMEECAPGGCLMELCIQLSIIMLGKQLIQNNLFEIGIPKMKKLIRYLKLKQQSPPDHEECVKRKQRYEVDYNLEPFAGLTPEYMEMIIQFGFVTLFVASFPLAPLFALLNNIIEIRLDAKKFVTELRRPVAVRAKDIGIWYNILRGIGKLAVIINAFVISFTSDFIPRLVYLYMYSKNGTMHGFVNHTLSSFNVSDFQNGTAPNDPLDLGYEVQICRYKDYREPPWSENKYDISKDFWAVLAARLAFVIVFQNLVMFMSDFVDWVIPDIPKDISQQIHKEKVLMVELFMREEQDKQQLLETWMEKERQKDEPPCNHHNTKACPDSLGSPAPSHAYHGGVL
Experiment: Automated patch clamping (QPatch) assay to measure TMEM16A activity in whole-cell
Assay type: cell-based
Conditions: for pEC50: CHO cells expressing human TMEM16A (abc), whole-cell automated patch clamp, Hill fit, read-out: TMEM16A QPATCH assay EC50 V3 EC50; for Emax: CHO, read-out: TMEM16A QPATCH assay EC50 V3 Assay Window (% TMEM16A max activation)
Description: Automated Patch Clamping Assay to Measure TMEM16A Activity in Whole-Cell
Chinese hamster ovary cells (CHO) cells expressing abc isoform of human TMEM16A channel (Ref) were grown in vented cell-culture flasks (Corning) containing cell culture medium (1×F-12 Ham, 10% FBS, 1% Penicillin-streptomycin, 5 μg/mL Blasticidin S HCl, 400 μg/mL Zeocin), maintained at 37° C. in an incubator with 5% C02, 95% 02 and 100% humidity. The cells were passaged every 2-3 days at 80-90% confluence by aspirating the cell culture medium, washing twice with 10 mL D-PBS then incubating with 4 mL Trypsin-EDTA for no longer than 5 minutes. Trypsin was neutralized with the addition of 32 mL growth medium to the cell suspension, the cells were counted using a viable-cell counter (Vi-CELL; Beckmann-Coulter) and new flasks were seeded at a cell density of 0.01, 0.02, or 0.05×10^6 cells per cm2 for 3, 2, or 1 day(s) growth, respectively. Cell suspension was diluted in the new 175 cm2 flask with 50 mL of growth medium. Doxycycline was used to induce the expression of TMEM16A channel protein and was added directly to the culture flask 18-24 hours in advance of assay at a final concentration of 1 μg/mL. Induced cells were washed with D-PBS and detached from their culture flasks by adding 10 mL of Detachin and incubating for 10 minutes. Once detached, 5 mL of QPatch assay medium (1×CHO-S-SFM II (Sigma), 25 mM HEPES) was added and the resultant cell suspension counted using the Vi-CELL viable cell counter. The optimal cell density for this QPatch assay is 2-5×1 06 cells/mL; re-adjusted as necessary with QPatch assay medium.
The ion channel activity of TMEM16A (abc) expressed in CHO cells was assed using an automated patch clamp system (Qpatch, Sophion). These systems use planar patch-clamp technology to enable high-resistance, continuous whole-cell recordings from multiple cells in parallel, whilst maintaining each individual cell as an isolated experiment. First, each well was primed with intracellular and extracellular solutions described below. Cells were spun down, washed and then resuspended using extracellular solution. Intracellular solution: 130 mM N-methyl-D-glucamine, 10 mM EGTA, 20 mM CaCl2, 1 mM MgCl2, 10 mM HEPES 10, 10 mM BAPTA, 99 mM Sucrose, 2 mM Mg-ATP, pH 7.3, 320 mOsm Extracellular solution: 130 mM N-methyl-D-glucamine, 10 mM EGTA, 20 mM CaCl2, 1 mM MgCl2, 10 mM HEPES 10, 10 mM BAPTA, 99 mM Sucrose, 2 mM Mg-ATP, pH 7.3, 320 mOsm. Resuspended cells were then added to each well and suction was applied from the intracellular side in order to position a cell on the chip aperture, form a high resistance (GO) seal and achieve a whole-cell recording configuration. Following successful whole cell access, cell membranes were maintained at a voltage of −70 mV until the voltage protocol is applied. From this voltage, membranes were depolarized to +70 mV for 1500 ms, and then hyperpolarized to […] before being depolarized again from −90 to +70 mV in a continuous ramp waveform. At the end of the ramp, the membrane voltage is stepped back to −70 mV until the next waveform was applied. Compounds were dissolved at 10 mM in 100% DMSO and then diluted into extracellular solution (0.3% DMSO final) to the desired final concentration. The assay lower and upper limit were defined as follow, average amplitude (nA) of the last 3 sweeps in the vehicle addition of each cell was considered the basal current (lower limit); the average maximum current response in 3 cells for a reference potentiator at maximal concentration (upper limit). Current values for each compound concentration were then plotted against […]. EC50 curves are fitted to concentration-response data using curve-fitting functions (Hill fit) within the QPatch software. Curve fitting is constrained between the lowest concentration (vehicle-only addition) and the highest current value measured within the concentration range. […]

[1] = maximum current at highest dose relative to reference potentiator at maximal concentration (upper limit) and vehicle (lower limit)

CC(C)[C@H](NC(=O)c1cnc(-c2cccc(-c3nnc(C(=O)N[C@@H](C)C4CC4)[nH]3)c2)o1)C(=O)OC(C)(C)C [Example 12.4, (S)-Tert-Butyl 2-(2-(3-(5-(((S)-1-Cyclopropylethyl)Carbamoyl)-4H-1,2,4-Triazol-3-Yl)Phenyl)Oxazole-5-Carboxamido)-3-Methylbutanoate]
pEC50: 7.15 | Emax [1]: 119%

CCOC(=O)[C@@H](NC(=O)c1cnc(-c2cccc(-c3cc(C(=O)N[C@@H](C)C4CC4)n[nH]3)c2)o1)C(C)C [Example 1.0, (S)-Ethyl 2-(2-(3-(3-(((S)-1-Cyclopropylethyl)Carbamoyl)-1H-Pyrazol-5-Yl)Phenyl)Oxazole-5-Carboxamido)-3-Methylbutanoate]
pEC50: 7.40 | Emax [1]: 79%

CCC(CC)NC(=O)c1cnc(-c2cccc(-c3cc(C(=O)NCc4ccc(F)cc4)n[nH]3)c2)o1 [Example 3.45, 2-(3-(3-((4-Fluorobenzyl)Carbamoyl)-1 H-Pyrazol-5-Yl)Phenyl)-N-(Pentan-3-yl)Oxazole-5-Carboxamide]
pEC50: 6.26 | Emax [1]: 81%

CCC(CC)NC(=O)c1cc(-c2cccc(-c3ncc(C(=O)NCc4ccccc4)o3)c2)[nH]n1 [Example 1.19, N-Benzyl-2-(3-(3-(Pentan-3-Ylcarbamoyl)-1H-Pyrazol-5-Yl)Phenyl)Oxazole-5-Carboxamide]
pEC50: 6.89 | Emax [1]: 69%

CCC(CC)NC(=O)c1cnc(-c2cccc(-c3nc(C(=O)NC(CC)CC)n(CCN4CCCCC4)n3)c2)o1 [Example 15.0, N-(Pentan-3-Yl)-2-(3-(5-(Pentan-3-Ylcarbamoyl)-1-(2-(Piperidin-1-Yl)Ethyl)-1H-1,2,4-Triazol-3-Yl)Phenyl)Oxazole-5-Carboxamide]
pEC50: 6.38 | Emax [1]: 161%

CCC(CC)NC(=O)c1cnc(-c2cccc(-c3ncc(C(=O)NC(CC)CC)o3)c2)o1 [Example 18.0, 2,2′-(1,3-Phenylene)Bis(N-(Pentan-3-Yl)Oxazole-5-Carboxamide)]
pEC50: 6.85 | Emax [1]: 97%

C[C@H](NC(=O)c1cc(-c2cccc(-c3ncc(C(=O)N[C@@H](C)C4CC4)o3)c2)[nH]n1)C1CC1 [Example 2.5, N-((S)-1-Cyclopropylethyl)-2-(3-(3-(((S)-1-Cyclopropylethyl)Carbamoyl)-1H-Pyrazol-5-Yl)Phenyl)Oxazole-5-Carboxamide]
pEC50: 8.00 | Emax [1]: 32%

CCC(CC)NC(=O)c1cc(-c2cccc(-c3ncc(C(=O)NCc4ccc(F)cc4)o3)c2)[nH]n1 [Example 1.17, N-(4-Fluorobenzyl)-2-(3-(3-(Pentan-3-Ylcarbamoyl)-1H-Pyrazol-5-yl)Phenyl)Oxazole-5-Carboxamide]
pEC50: 6.24 | Emax [1]: 94%

CCC(CC)NC(=O)c1cnc(-c2cccc(-c3cc(C(=O)NCC(C)(C)OC)n[nH]3)c2)o1 [Example 3.12, 2-(3-(3-((2-Methoxy-2-Methylpropyl)Carbamoyl)-1H-Pyrazol-5-Yl)Phenyl)-N-(Pentan-3-Yl)Oxazole-5-Carboxamide]
pEC50: 6.57 | Emax [1]: 76%

CCC(CC)NC(=O)c1nnc(-c2cccc(-c3ncc(C(=O)NC(CC)CC)o3)c2)[nH]1 [Example 13.3, N-(Pentan-3-Yl)-2-(3-(5-(Pentan-3-Ylcarbamoyl)-1 H-1,2,4-Triazol-3-Yl)Phenyl)Oxazole-5-Carboxamide]
pEC50: 7.30 | Emax [1]: 95%

CCC(CC)NC(=O)c1cnc(-c2cccc(-c3cc(C(=O)NC(C)(C)C4CC4)n[nH]3)c2)o1 [Example 3.7, 2-(3-(3-((2-Cyclopropylpropan-2-Yl)Carbamoyl)-1H-Pyrazol-5-Yl)Phenyl)-N-(Pentan-3-Yl)Oxazole-5-Carboxamide]
pEC50: 7.70 | Emax [1]: 118%

COC(=O)[C@@H](NC(=O)c1cnc(-c2cccc(-c3cc(C(=O)NC(C4CC4)C4CC4)n(CC(O)C(F)(F)F)n3)c2)o1)C(C)C (stereo partly drawn) [Example 6.1, (2S)-Methyl 2-(2-(3-(5-((Dicyclopropylmethyl)Carbamoyl)-1-(3,3,3-Trifluoro-2-Hydroxypropyl)-1H-Pyrazol-3-Yl)Phenyl)Oxazole-5-Carboxamido)-3-Methylbutanoate]
pEC50: 6.92 | Emax [1]: 220%

CCC(CC)NC(=O)c1cnc(-c2cccc(-c3cc(C(=O)NC(C4CC4)C4CCCO4)n[nH]3)c2)o1 (single isomer, unassigned) [Example 3.4 (iv), 2-(3-(3-((Cyclopropyl(Tetrahydrofuran-2-Yl)Methyl)Carbamoyl)-1H-Pyrazol-5-Yl)Phenyl)-N-(Pentan-3-Yl)Oxazole-5-Carboxamide]
pEC50: 6.42 | TMEM16A QPATCH assay EC50 V3 Assay Window (% TMEM16A max activation) [1]: 73%

CCOC(=O)C(C)(C)NC(=O)c1cnc(-c2cccc(-c3cc(C(=O)NC(CC)CC)n[nH]3)c2)o1 [Example 1.51, Ethyl 2-Methyl-2-(2-(3-(3-(Pentan-3-Ylcarbamoyl)-1H-Pyrazol-5-Yl)Phenyl)Oxazole-5-Carboxamido)Propanoate Trifluoroacetate]
pEC50: 6.01 | Emax [1]: 64%

CCC(CC)NC(=O)c1cnc(-c2cccc(-c3cc(C(=O)N[C@H](CC)[C@H]4CC[C@@H](C)O4)n[nH]3)c2)o1 [Example 3.53, 2-(3-(3-(((R)-1-((2R,5R)-5-Methyltetrahydrofuran-2-Yl)Propyl)Carbamoyl)-1 H-Pyrazol-5-Yl)Phenyl)-N-(Pentan-3-Yl)Oxazole-5-Carboxamide]
pEC50: 6.14 | Emax [1]: 109%

CCOC(=O)[C@@H](NC(=O)c1cc(-c2cccc(-c3ncc(C(=O)NC(CC)CC)o3)c2)nn1CCO)C(C)C [Example 5.0, (S)-ethyl 2-(1-(2-hydroxyethyl)-3-(3-(5-(pentan-3-ylcarbamoyl)oxazol-2-yl)phenyl)-1 H-pyrazole-5-carboxamido)-3-methylbutanoate]
pEC50: 7.40 | Emax [1]: 110%
